Test results reported in patent US6833445B2, “Guanidinylation, guanidinoglycosides, uses, and methods of assaying their activity” (The Regents of the University of California, priority 2000, dated 2004).

What was measured:
[1] = target: HIV-1 Rev protein RNA recognition element (RRE); experiment: Solid-phase assay: displacement of fluorescent Rev peptide from immobilized RRE; assay type: binding; conditions: for (e) Ratio (c)/(b): IC50 with polyA-polyU divided by IC50 without competitor, proportional to RRE selectivity; for change of ratio (c)/(b) upon guanidinylation: decrease = more selective for the RRE than amino precursor; for activity in the presence of competing nucleic acids: competing DNA / tRNA
From the text: To facilitate the discovery of active guanidinoglycosides an assay system using HIV-1 response elements can be used. For example, RRE-specific binders as well as TAR specific binders can be identified using the methods of the present invention. The present invention provides a rapid screening assay and method depicted in FIG. 4. The Rev-RRE assay relies on the release of a fluorescently tagged Rev fragment from an immobilized RRE-Rev complex and can be performed under various stringency levels. The assay can be conducted in the presence of competing RNA molecules, other potential cellular targets, or cellular extracts. Only high affinity ligands can effectively compete with the bound Rev34-50 peptide (Kd is approximately 1 nM), thus releasing the highly fluorescent molecules into solution. Non-selective binders will be scavenged by competitor molecules present in solution.
In one embodiment, the present invention provides an assay for identifying a test compound which binds to RRE. The assay includes an immobilized RRE, a detectably labeled Rev, and a test compound. A test compound that liberates the labeled Rev due to competitive binding to the RRE results in an increase in the labeled Rev in the supernatant of the assay. Accordingly, following incubation of immobilized RRE, a labeled Rev, and a test compound, the supernatant is measured and the amount of label in the supernatant is determined. The amount of label in the supernatant is indicative of the degree or ability of the test compound to bind to the RRE or REV polypeptide. By comparing the amount of label in the supernatant with the amount in a control or standard sample, one can identify a test compound which effectively competes with the Rev for binding to RRE. […] In the depicted embodiment of FIG. 4 the ternary complex containing a fluorescently tagged Rev peptide bound to an immobilized RRE is incubated with the test compound (e.g., a potential competitor, binding agent or inhibitor)under conditions and in the presence of competing RNA molecules n a microcentrifuge filter tube. After incubation, the mixture is filtered and the filtrate is illuminated. In the presence of a strong and selective RRE binder, the fluorescently labeled peptide will be released from the beads into solution and the filtrate will become fluorescent.
The basic principle of the assay systems used to identify compounds that inhibit binding of Rev to RRE or compounds that interact with RRE involves preparing a reaction mixture containing the target (e.g., RRE) and the binding partner (e.g., labeled-Rev) under conditions and for a time sufficient to allow the two to interact and bind, thus form a complex. In order to test a compound for inhibitory activity, the reaction mixture is prepared in the presence and absence of the test compound. The test compound can be initially included in the reaction mixture, or can be added at a time subsequent to the addition of the RRE and its binding partner, Rev. Control reaction mixtures are incubated without the test compound or with a placebo. The presence of labeled-Rev that is not bound to RRE over that amount found in a control or standard sample is indicative of a test compound that competes with Rev for binding to RRE.
A novel solid-phase assembly was used to evaluate the RNA specificity of the new derivatives. This assay relies on the displacement of a fluorescent Rev peptide from a solid-phase immobilized RRE and can be performed in the presence of competing nucleic acids. Table 4 (columns b-d) summarizes the IC50 values determined by this method. By comparing IC50 values measured in the absence of any competitors to the values measured in the presence of DNA or RNA, a quantitative measure for the relative selectivity of each ligand can be made. Aminoglycosides have a substantial affinity to poly A-poly U duplex RNA (compare column b to c, Table 4). […] For neomycin, this ratio increases upon guanidinylation, indicating a lower RRE selectivity. […]

[2] = target: HIV-1 Rev protein RNA recognition element (RRE); experiment: Fluorescence anisotropy: displacement of fluorescein-labeled Rev peptide from the RRE in solution; assay type: binding; conditions: for increase in inhibitory activity upon guanidinylation relative to the parent compound: fluorescence anisotropy IC50, guanidinylated vs parent
From the text: In a modification of the above assay, the solid support aspect of the above embodiment is removed. The biophysical characteristics of potential inhibitory test compounds can be detected by fluorescence anisotropy as depicted in FIG. 5. The RRE-bound fluorescent peptide has a slower Brownian tumbling motion relative to the free peptide in solution. Upon displacement of the fluorescently labeled Rev from the RRE by a competing inhibitor, a decrease in the anisotropy value is observed. The displacement of the labeled-Rev can be followed by monitoring the anisotropy at the emission wavelength of the Rev34-50-bound fluorophore.
The HIV-1 Rev-RRE interaction was used to examine the impact of guanidinylation upon RNA binding, and to probe the potential antiviral activity of these compounds. The binding of Rev to the RRE (Rev response element) is responsible for the export of unspliced and singly spliced HIV genomic RNA out of the host nucleus. This essential protein-RNA interaction remains an important, and nonutilized, therapeutic target. The high-affinity Rev binding site on the RRE has been localized to the purine-rich bulge. The binding of Rev to the RRE is governed by the arginine-rich fragment, Rev34-50. Key guanidinium groups make direct contacts with the RNA platform and are essential for the specific binding of Rev to the RRE. Fluorescence anisotropy has been employed to determine the affinity of the new derivatives to the RRE in solution. The RRE-bound fluorescent Rev peptide has a slower Brownian tumbling motion relative to the free peptide. Upon displacement of the fluorescein-labeled Rev peptide from the RRE by an inhibitor, a decrease in the anisotropy value is observed. Table 4 (column a) compares the IC50 values of the guanidinoglycosides to the aminoglycosides. Guanidinylation of kanamycin A, kanamycin B, and tobramycin results in a greater than 10-fold increase in inhibitory activity relative to the parent compounds. A 5-fold increase in activity is observed upon guanidinylation of neomycin B and paromomycin.

HIV-1 = experiment: Inhibition of viral replication in HIV-1-infected CD4+ HeLa cells (plaque formation); assay type: cell-based
Description: By converting aminoglycosides into guanidinoglycosides the biological activities of these glycosides were dramatically affected. Neomycin B was reported to be an in vivo and in vitro inhibitor of Rev-RRE binding, as well as an effective inhibitor of HIV-1 replication in vivo. The ability of guanidinoneomycin B and guanidinotobramycin to inhibit viral replication in HIV-1-infected CD4+ HeLa cells was measured and compared to the antiviral activities of neomycin B and tobramycin (FIG. 6). As evidenced by the dose-dependent decrease in plaque formation, the guanidinoglycosides inhibit HIV replication with activities approximately 100 times higher than their amino precursors (FIG. 6). The antiviral activity of the guanidinoglycosides may be related to their ability to bind the RRE with high affinity and specificity, thus preventing the HIV-1 Rev-RRE interaction and viral replication.

[3] = 15 ug/mL plasmid DNA (pGEM), read-out: IC50 (d) Solid-Phase + DNA
[4] = 15 ug/mL polyA-polyU duplex RNA, read-out: IC50 (c) Solid-Phase + poly A polyU
[5] = Solid-phase, no competitor (Table 4), read-out: IC50 (b) Solid-Phase
[6] = Fluorescence Anisotropy (Table 4), read-out: IC50 (a) Anisotrophy
[7] = Fluorescence Anisotropy, amino form of the glycoside (Table 3), read-out: IC50 (uM) amino form
[8] = Solid Phase Assay, competing DNA (Table 2), read-out: IC50 with DNA
[9] = Solid Phase Assay, competing tRNA (Table 2), read-out: IC50 with tRNA
[10] = Solid Phase Assay, no competitor (Table 2), read-out: IC50
[11] = Fluorescence Anisotropy, guanidino form of the glycoside (Table 3), read-out: IC50 (uM) guandino form

Structure (SMILES)	IC50 [1, 3] [µM]	IC50 [1, 4] [µM]	(e) Ratio (c)/(b) [1]	IC50 [1, 5] [µM]	change of ratio (c)/(b) upon guanidinylation [1]	IC50 [2, 6] [µM]	IC50 [2, 7] [µM]	increase in inhibitory activity upon guanidinylation relative to the parent compound [2] [fold]	IC50 [1, 8] [µM]	IC50 [1, 9] [µM]	IC50 [1, 10] [µM]	activity in the presence of competing nucleic acids ([1]; solid phase assay)	IC50 [2, 11] [µM]	inhibition of HIV replication, activity relative to parent aminoglycoside (HIV-1)	more active when compared to tobramycin that has not been guanidinylated ([1]; solid phase assay)
NC[C@H]1O[C@H](O[C@H]2[C@H](O)[C@@H](O[C@H]3O[C@H](CO)[C@@H](O)[C@H](N)[C@H]3O)[C@H](N)C[C@@H]2N)[C@H](O)[C@@H](O)[C@@H]1O [KanamycinA, Kanamycin A]	750	1300	1.9	700	decreases	750	100								
NC[C@H]1O[C@H](O[C@H]2[C@H](O)[C@@H](O[C@H]3O[C@H](CO)[C@@H](O)[C@H](N)[C@H]3O)[C@H](N)C[C@@H]2N)[C@H](N)[C@@H](O)[C@@H]1O [KanamycinB, Kanamycin B]	90	160	2.0	80	decreases	80									
NC[C@@H]1O[C@H](O[C@H]2[C@@H](O)[C@H](O[C@@H]3[C@@H](O)[C@H](N)C[C@H](N)[C@H]3O[C@H]3O[C@H](CN)[C@@H](O)[C@H](O)[C@H]3N)O[C@@H]2CO)[C@H](N)[C@@H](O)[C@@H]1O [Neomycin B, Neomycin]	8	16	2.7	6	increases	6	1	5							
NC[C@@H]1O[C@H](O[C@H]2[C@@H](O)[C@H](O[C@@H]3[C@@H](O)[C@H](N)C[C@H](N)[C@H]3O[C@H]3O[C@H](CO)[C@@H](O)[C@H](O)[C@H]3N)O[C@@H]2CO)[C@H](N)[C@@H](O)[C@@H]1O [Paromomycin]	60	110	2.0	55	decreases	65		5							
NC[C@H]1O[C@H](O[C@H]2[C@H](O)[C@@H](O[C@H]3O[C@H](CO)[C@@H](O)[C@H](N)[C@H]3O)[C@H](N)C[C@@H]2N)[C@H](N)C[C@@H]1O [Tobramycin]	50	140	3.1	45	decreases	44	10		55	1.1	50	significantly lower activity in the presence of tRNA			
NC(N)=NC[C@@H]1O[C@H](O[C@H]2[C@H](O)[C@@H](O[C@H]3O[C@@H](CO)[C@H](O)[C@@H](N=C(N)N)[C@@H]3O)[C@H](N=C(N)N)C[C@@H]2N=C(N)N)[C@@H](O)[C@H](O)[C@H]1O [guanidino-kanamycinA, Guanidino Kanamycin A]	55	60	1.2	50		65							8		
N=C(N)NCC1OC(OC2C(NC(=N)N)CC(NC(=N)N)C(OC3OC(CO)C(O)C(NC(=N)N)C3O)C2O)C(NC(=N)N)C(O)C1O (centres unmarked) [guanidino-kanamycinB, Guanidino Kanamycin B]	3.5	4.7	1.6	3		3.5									
N=C(N)NC[C@@H]1O[C@H](O[C@H]2[C@@H](O)[C@H](O[C@@H]3[C@@H](O)[C@H](NC(=N)N)C[C@H](NC(=N)N)[C@H]3O[C@H]3O[C@H](CNC(=N)N)[C@@H](O)[C@H](O)[C@H]3NC(=N)N)O[C@@H]2CO)[C@H](NC(=N)N)[C@@H](O)[C@@H]1O [guanidino-neomycin B, Guanidino Neomycin]	0.9	4.5	5.6	0.8		1.3							0.2	approximately 100 times	
N=C(N)NCC1OC(OC2C(CO)OC(OC3C(O)C(NC(=N)N)CC(NC(=N)N)C3OC3OC(CO)C(O)C(O)C3NC(=N)N)C2O)C(NC(=N)N)C(O)C1O (centres unmarked) [guanidino-paromomycin, Guanidino Paromomycin]	16	20	1.4	14		18									
N=C(N)NCC1OC(OC2C(NC(=N)N)CC(NC(=N)N)C(OC3OC(CO)C(O)C(NC(=N)N)C3O)C2O)C(NC(=N)N)CC1O (centres unmarked) [guanidino-tobramycin]	3.5	5	1.7	3		3.8			3	3.5	2.5	approximately the same activity in the presence of both competing DNA and tRNA	0.65	approximately 100 times	about 20 fold
